Measured values published in publication PMC4865820, “Branched Peptide, B2088, Disrupts the Supramolecular Organization of Lipopolysaccharides and Sensitizes the Gram-negative Bacteria” (Scientific Reports, 2016).
Converted amounts (≈) assume the structure as drawn. Positions of bridges follow the written chain, without caps; N, C: chain ends. Non-standard residues stand in square brackets, D forms with d. Residues, ends and D or L forms follow the SMILES beside them. Chains are numbered I, II in the order given. *: point of attachment. X1 = CC[C@H](C)CCCCC(=O)*; Dab = NCC[C@H](N)C(=O)O

Tests used:
[1] = test system: E. coli D21 and LPS outer core polysaccharide truncated mutant strains; assay: MIC ratio against LPS-truncated E. coli mutants; format: cell-based; details: oligosaccharide-truncated mutants vs wild type D21; increase seen against D21e9 lacking outer core polysaccharides
Text: LPS is a complex glycosylated lipid molecule comprising of a hydrophobic lipid A and core oligosaccharides. The core oligosaccharides are structurally divided into an inner core (lipid A proximal) region and an outer core O-antigen region (Fig. 4a). To ascertain if the alterations in OM polysaccharides modify the barrier penetration and antimicrobial properties of the peptides, we determined the MIC of the peptides against 4 cell-wall defective mutants of E. coli (Fig. 4a). We report the MIC ratio (i.e., MICmut/MICwt) which is the ratio of MIC of peptides/antibiotics against oligosaccharides truncated mutant strains over MIC of wild type (D21) strains. For antibiotics that access intracellular targets through porin pathways or peptides that bind to the lipid A part of the LPS, the MIC ratio is independent of LPS truncation (Fig. 4b). However, antibiotics or peptides which interact with outer or inner core polysaccharides of the LPS are expected to show changes in the MIC ratio.
All the peptide congeners were purchased from M/s. Mimotopes Pty Ltd, Australia. The peptides were used as such and the homogeneity of peptides were confirmed by HPLC. Unless otherwise stated all the chemicals and the antibiotics tested were purchased from Sigma Aldrich (Singapore) Pte Ltd. The florescent probe, BODIPY TR cadaverine (BC) was purchased from Molecular Probes/ Invitrogen (CA, USA). E. coli LPS outer core polysaccharide truncated mutant strains were obtained from CGSG, The Coli Genetic Stock Centre, Yale University, […], USA. Relevant genotype of the strains are, D21 (rfa+); D21e19 (rfa-11) is a deficient mutant in carbohydrates close to the O-antigen part; D21e7 (rfa-1) is deficient in galactose as well as O-antigen; D21f1 (rfa-1, rfa21) lacks phosphate groups in the LPS has glucose and heptose intact; D21f2 (rfa-1, rfa-31) is deficient in heptose of the inner core[57][58].
(§1) MIC of each peptide was determined using the microdilution method in a 96 well microtitre plates (SPL Life Sciences Co., Ltd, Korea). Two-fold serial dilutions of each peptide in Mueller-Hinton Broth (MHB) was prepared from a 1 mg/ml stock solution of the peptide in the same broth, to obtain a final concentration in the range of 0.0976–50 μg/ml in each well. Bacterial suspensions (P. aeruginosa ATCC 27853, P. aeruginosa 4877, P. aeruginosa 23155, K. pneumoniae ATCC 10031 and K. pneumoniae 4299) were prepared by suspending the overnight cultured bacteria in saline and adjusting the inoculum to ~10^8 colony forming units (CFU) per ml. A further 150-fold dilution was then prepared in MHB to achieve a final cell density of 10^5–10^6 CFU/ml. In each well, 100 μl of inoculum was mixed with the equal volume of peptides at their 2× concentration. Positive and negative controls contained 200 μl of inoculum (without any peptide) and broth alone (no peptide/inoculum) respectively. Another negative control in which MHB containing 200 μl of peptide alone in its highest concentration tested (50 μg/ml) was also included to ensure that the optical density measured in the test wells was not due to turbidity of the peptides in solution. The 96 well polystyrene plates were then incubated at 37 °C for 24 h and the optical density at 600 nm (OD600) was measured every 30 min continuously using a TECAN microplate reader (TECAN Infinite 200, Austria). All the experiments were performed in two independent duplicates and the MIC was determined as the lowest peptide concentration in which no visible growth was observed.

K. pneumonia 4299 = assay: microbe, parasite or virus in culture; format: cell-based, K. pneumoniae; details: for MIC: Klebsiella pneumoniae, 4299, individual peptide/antibiotics, read-out: MIC against K. pneumoniae 4299
Method in brief: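 Peptides two-fold diluted in Mueller-Hinton Broth (0.0976–50 μg/ml final) against 10^5–10^6 CFU/ml inoculum, 37 °C for 24 h with OD600 monitored every 30 min. MIC = lowest concentration with no visible growth; two independent duplicates.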

[2] = test system: A549 cells infected with P. aeruginosa ATCC 9027; assay: Intracellular bacterial load in infected A549 cells; format: cell-based; details: 24 h; for Intracellular bacterial load: antibiotic alone, gatifloxacin at 2 μg/ml
Method: Human lung A549 epithelial cells (ATCC CCL185) were seeded at a density of 10^5 cells/well in a 24 well plate. Next day cells were infected with P. aeroginosa 9027 strains at the multiplicity of infection of 5 for 2 h. Cells were then washed thrice with PBS followed by DMEM to remove the extracellular bacteria. The washed cells were subsequently treated with 200 μg/ml gentamicin to kill any extracellular bacteria. After 1 h cells were washed with PBS again to remove the dead bacteria and the cells were either mixed with antibiotics (Tobramycin or Gatifloxacin) alone or in combination with B2088. After 24 h, the cells were lysed with 0.1% Triton-X100 and the lysates were serially diluted and plated on to a tryptic soy agar (TSA) plates for colony counting.

K. pneumoniae 31158 = assay: microbe, parasite or virus in culture; format: cell-based; details: for MIC: Klebsiella pneumoniae, 31158, individual peptide/antibiotics, read-out: MIC against K. pneumoniae 31158
P. aeruginosa DR4877/07 = assay: microbe, parasite or virus in culture; details: for MIC: Pseudomonas aeruginosa, DR4877/07, 24 h, read-out: MIC of antibiotics
Method: as §1, with “Austria).” for “Austria). All the experiments were performed in two independent duplicates and the MIC was determined as the lowest peptide concentration in which no visible growth was observed.”

[3] = MHB, 10^5–10^6 CFU/ml, 37 °C, 24 h, two independent duplicates

| SMILES | MIC ratio (MICmut/MICwt) [1] | MIC against K. pneumoniae 4299 (K. pneumonia 4299; 24 h) [µg/mL] | Minimum Inhibitory Concentration against K. pneumonia 4299 (K. pneumonia 4299; 24 h) [µM] | Intracellular bacterial burden ([2]; B2088 alone at 200 μg/ml) | MIC against K. pneumoniae 31158 (K. pneumoniae 31158; 31158, 24 h) [µg/mL] | MIC (K. pneumonia 4299) [µg/mL] | Intracellular bacterial load [2] | MIC (K. pneumoniae 31158) [µg/mL] | MIC (P. aeruginosa DR4877/07) [µg/mL] | Minimum Inhibitory Concentration against K. pneumonia 4299 (K. pneumonia 4299; [3]) [µM] | Minimum Inhibitory Concentration against P. aeruginosa DR4877/07 (P. aeruginosa DR4877/07; [3]) [µM] | MIC of Polymyxin B against this strain (P. aeruginosa DR4877/07; alone) [µg/mL] |
| --- | --- | --- | --- | --- | --- | --- | --- | --- | --- | --- | --- | --- |
| CC(C)[C@H](NC(=O)[C@H](CCCCN)NC(=O)[C@H](CCCNC(=N)N)NC(=O)CNC(=O)[C@@H](N)CCCNC(=N)N)C(=O)N[C@H](C(=O)N[C@@H](CCCNC(=N)N)C(=O)N[C@@H](CCCNC(=N)N)C(=O)NCCCC[C@H](NC(=O)[C@H](CCCNC(=N)N)NC(=O)[C@H](CCCNC(=N)N)NC(=O)[C@@H](NC(=O)[C@@H](NC(=O)[C@H](CCCCN)NC(=O)[C@H](CCCNC(=N)N)NC(=O)CNC(=O)[C@@H](N)CCCNC(=N)N)C(C)C)C(C)C)C(=O)N[C@@H](CCCCN)C(=O)O)C(C)C [B2088] (I: H-RGRKVVRRKK-OH / II: H-RGRKVVRR; amide I:9-II:C; N-terminus and C-terminus assumed) | no apparent change | 12.5 (≈ 5.46 µM) | 2.7 | did not decrease the intracellular bacterial burden | 12.5 (≈ 5.46 µM) | – | – | – | – | – | – | – |
| NC[C@H]1O[C@H](O[C@H]2[C@H](O)[C@@H](O[C@H]3O[C@H](CO)[C@@H](O)[C@H](N)[C@H]3O)[C@H](N)C[C@@H]2N)[C@H](N)C[C@@H]1O [Tobramycin] | marked increase | – | – | – | – | 0.024 (≈ 0.0513 µM) | decreased the intracellular bacterial load | 0.012 (≈ 0.0257 µM) | 800 | – | – | – |
| COc1c(N2CCNC(C)C2)c(F)cc2c(=O)c(C(=O)O)cn(C3CC3)c12 (stereo not drawn) [Gatifloxacin] | – | – | – | – | – | 1.56 (≈ 4.16 µM) | marked decrease in the intracellular bacterial burden | 1.56 (≈ 4.16 µM) | 31.2 | – | – | – |
| CC[C@H](C)CCCCC(=O)N[C@@H](CCN)C(=O)N[C@H](C(=O)N[C@@H](CCN)C(=O)N[C@H]1CCNC(=O)[C@H]([C@@H](C)O)NC(=O)[C@H](CCN)NC(=O)[C@H](CCN)NC(=O)[C@H](CC(C)C)NC(=O)[C@@H](Cc2ccccc2)NC(=O)[C@H](CCN)NC1=O)[C@@H](C)O [Polymyxin B, polymyxin B, reference compound] (X1-[Dab]T[Dab][Dab][Dab][dF]L[Dab][Dab]T; lactam 4-C (inferred); N-terminus assumed) | did not show any change | – | – | – | – | – | – | – | – | 1.13 | 1.13 | 1.56 |
